The results in this text go back to patent US8435978B2, “Substituted sulfonamide compounds” (Gruenenthal GmbH, priority 2006, dated 2013).

One assay addresses T1, B1R receptor of the rat (Rattus norvegicus, UniProt P97583).
T1 construct: host or cells: CHO K1 cells (Chinese hamster ovary), stably transfected
T1 sequence (P97583 1-337): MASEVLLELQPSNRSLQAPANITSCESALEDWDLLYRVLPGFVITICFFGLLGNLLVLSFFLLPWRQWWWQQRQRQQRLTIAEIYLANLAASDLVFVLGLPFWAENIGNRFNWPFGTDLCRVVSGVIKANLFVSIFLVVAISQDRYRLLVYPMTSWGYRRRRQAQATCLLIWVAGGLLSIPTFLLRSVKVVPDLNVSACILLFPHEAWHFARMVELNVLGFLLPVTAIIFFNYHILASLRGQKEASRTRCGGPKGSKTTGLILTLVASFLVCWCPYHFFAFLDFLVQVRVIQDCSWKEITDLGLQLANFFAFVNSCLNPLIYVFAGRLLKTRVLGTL
In words: Functional study on the bradykinin receptor 1 (B1R), FLIPR Ca2+ assay, rB1R cells. To be noted: agonist Des-Arg9-bradykinin 100 nM, % inhibition compared with the maximum achievable inhibition; for inhibition at 10 µM: CHO-K1, test substance 10 μM, read-out: B1R Antagonism, rat [10 μM] % Inhibition; for B1R Antagonism, rat [10 μM] % Inhibition: test substance 10 μM, rB1R CHO K1 cells. In kind it is cell-based. Put shortly: (§1)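 FLIPR Ca2+ read-out (Fluo-4, peak fluorescence) in stably transfected CHO K1 cells. Compounds at 10 μM, then 10 min later agonist challenge: human B1R with Lys-Des-Arg9-bradykinin 0.5 nM, rat B1R with Des-Arg9-bradykinin 100 nM; reported as % activation or % of maximal inhibition.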

Another assay concerns the target T2, human B1R receptor (Homo sapiens, UniProt P46663).
T2 construct: host or cells: CHO K1 cells (Chinese hamster ovary), stably transfected
T2 sequence (P46663 1-353): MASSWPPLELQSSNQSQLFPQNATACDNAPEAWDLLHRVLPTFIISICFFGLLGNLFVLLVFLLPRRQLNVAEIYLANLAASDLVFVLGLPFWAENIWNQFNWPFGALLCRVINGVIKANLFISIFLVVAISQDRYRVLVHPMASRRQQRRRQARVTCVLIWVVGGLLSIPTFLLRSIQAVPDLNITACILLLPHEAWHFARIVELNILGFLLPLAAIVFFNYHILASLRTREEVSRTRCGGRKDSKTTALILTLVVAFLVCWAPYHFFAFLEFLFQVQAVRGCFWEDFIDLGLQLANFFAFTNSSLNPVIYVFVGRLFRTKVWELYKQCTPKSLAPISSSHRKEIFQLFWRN
Kind of assay: Functional study on the bradykinin receptor 1 (B1R), FLIPR Ca2+ assay, hB1R cells. In kind it is cell-based. Particulars: agonist Lys-Des-Arg9-bradykinin 0.5 nM, % inhibition compared with the maximum achievable inhibition; for inhibition at 10 µM: CHO-K1, test substance 10 μM, read-out: B1R Antagonism, human [10 μM] % Inhibition; for B1R Antagonism, human [10 μM] % Inhibition: test substance 10 μM, hB1R CHO K1 cells. The gist of the method:
as §1

Counter-ions that a name gives are not always drawn.

With `O=C(COCC1CCCCN1S(=O)(=O)c1ccc(Cl)c(Cl)c1)N1CCN(c2ccc(F)cc2)CC1` (centres unmarked) [Example 59, 2-[1-(3,4-dichloro-phenylsulfonyl)-piperidin-2-ylmethoxy]-1-[4-(4-fluoro-phenyl)-piperazin-1-yl]-ethanone], the inhibition (usually the relative decrease from the control value, in per cent) at 10 µM on B1R receptor of the rat was determined as 0%; on human B1R receptor it was 61.5%.
The corresponding values for `CN1CCC(N2CCN(C(=O)COCC3CCCCN3S(=O)(=O)c3c(Cl)cccc3Cl)CC2)CC1` (centres unmarked) [Example 141, 2-((1-(2,6-dichlorophenylsulfonyl)piperidin-2-yl)methoxy)-1-(4-(1-methylpiperidin-4-yl)piperazin-1-yl)ethanone dihydrochloride] are 101% and 101%.
On to `CCN(CC)CCN(CCN(CC)CC)C(=O)COCC1Cc2ccccc2CN1S(=O)(=O)c1c(C)cc(C)cc1C` (centres unmarked) [Example 48, N,N-bis-(2-diethylamino-ethyl)-2-[2-(2,4,6-trimethyl-phenylsulfonyl)-1,2,3,4-tetra-hydro-isoquinolin-3-ylmethoxy]-acetamide], for which the inhibition at 10 µM worked out at 30.5% on B1R receptor of the rat and 66.6% on human B1R receptor.
The corresponding values for `O=C(COCC1CCCCN1S(=O)(=O)c1c(Cl)cccc1Cl)N1CCCC1Cc1ccccn1` (centres unmarked) [Example 456, 2-((1-(2,6-dichlorophenylsulfonyl)piperidin-2-yl)methoxy)-1-(2-(pyridin-2-ylmethyl)pyrrolidin-1-yl)ethanone] are 101% and 100%.
As for `COc1cc(C)c(S(=O)(=O)N2CCCCC2COCC(=O)NCc2cccc(N3CCN(C)CC3)c2)c(C)c1` (centres unmarked) [Example 433, 2-((1-(4-methoxy-2,6-dimethylphenylsulfonyl)piperidin-2-yl)methoxy)-N-(3-(4-methylpiperazin-1-yl)benzyl)acetamide], the inhibition at 10 µM at B1R receptor of the rat is 100%; at human B1R receptor it was 103%.
The like results for `COc1cc(C)c(S(=O)(=O)N2CCCCC2COCC(=O)N(C)CCC2CCC(N(C)C)CC2)c(C)c1` (centres unmarked) [Example 209, N-(2-(4-(dimethylamino)cyclohexyl)ethyl)-2-((1-(4-methoxy-2,6-dimethylphenylsulfonyl)piperidin-2-yl)methoxy)-N-methylacetamide] were, in that order, 99.9% and 104%.
Regarding `CN1CCC(N2CCN(C(=O)COCC3CCCN3S(=O)(=O)c3c(Cl)cc(C(F)(F)F)cc3Cl)CC2)CC1` (centres unmarked) [Example 570, 2-((1-(2,6-dichloro-4-(trifluoromethyl)phenylsulfonyl)pyrrolidin-2-yl)methoxy)-1-(4-(1-methylpiperidin-4-yl)piperazin-1-yl)ethanone], the results for the inhibition at 10 µM on B1R receptor of the rat and on human B1R receptor were 98.1% and 97.7%, respectively.
Consider `O=C(COCC1CCCCN1S(=O)(=O)c1ccc(Cl)c(Cl)c1)N1CCC(CCN2CCCCC2)CC1` (centres unmarked) [Example 20, 2-((1-(3,4-dichlorophenylsulfonyl)piperidin-2-yl)methoxy)-1-(4-(2-(piperidin-1-yl)-ethyl)piperidin-1-yl)ethanone], for which the inhibition at 10 µM at B1R receptor of the rat was determined as 86.4%; on human B1R receptor it was 94.9%.
The corresponding values for `COc1cc(C)c(S(=O)(=O)N2CCCCC2COCC(=O)N2CCN(c3ccc(F)cc3)CC2)c(C)c1` (centres unmarked) [Example 289, 1-(4-(4-fluorophenyl)piperazin-1-yl)-2-((1-(4-methoxy-2,6-dimethylphenylsulfonyl)piperidin-2-yl)methoxy)ethanone] are 95.5% and 103%.
The corresponding values for `Cc1ccccc1S(=O)(=O)N1CCCCC1COCC(=O)N1CCN(C2CCN(C)CC2)CC1` (centres unmarked) [Example 159, 1-(4-(1-methylpiperidin-4-yl)piperazin-1-yl)-2-((1-(o-tolylsulfonyl)piperidin-2-yl)methoxy)ethanone dihydrochloride] are 101% and 99.2%.
As to `O=C(COCC1Cc2ccccc2CN1S(=O)(=O)c1ccc(Cl)cc1Cl)N1CCC(N2CCCC2)CC1` (centres unmarked) [Example 17], at B1R receptor of the rat, the “B1R Antagonism, rat [10 μM] % Inhibition” value was found to be 96.94%. Besides, the “B1R Antagonism, human [10 μM] % Inhibition” value on human B1R receptor is listed as 95.53%.
Take `O=C(COCC1CCCCN1S(=O)(=O)c1c(Cl)cccc1Cl)NC1CCN(Cc2ccccc2)CC1` (centres unmarked) [Example 488, N-(1-benzylpiperidin-4-yl)-2-((1-(2,6-dichlorophenylsulfonyl)piperidin-2-yl)methoxy)acetamide]: the inhibition at 10 µM at B1R receptor of the rat was determined as 102%; at human B1R receptor it was 101%.
The like results for `COc1cc(C)c(S(=O)(=O)N2CCCC2COCC(=O)N2CCCCC2Cc2ccccn2)c(C)c1` (centres unmarked) [Example 449, 2-((1-(4-methoxy-2,6-dimethylphenylsulfonyl)pyrrolidin-2-yl)methoxy)-1-(2-(pyridin-2-ylmethyl)piperidin-1-yl)ethanone] were, in that order, 99.7% and 90.8%.
The like results for `COc1cc(C)c(S(=O)(=O)N2CCCC2COCC(=O)N2CCCCCC2c2ccc(N(C)C)cc2)c(C)c1` (centres unmarked) [Example 475, 1-(2-(4-(dimethylamino)phenyl)azepan-1-yl)-2-((1-(4-methoxy-2,6-dimethylphenylsulfonyl)pyrrolidin-2-yl)methoxy)ethanone] were, in that order, 102% and 90.4%.
Regarding `CN1CCN(C2CCN(C(=O)COCC3CCCCN3S(=O)(=O)c3cccc4ccccc34)CC2)CC1` (centres unmarked) [Example 230, 1-(4-(4-methylpiperazin-1-yl)piperidin-1-yl)-2-((1-(naphthen-1-ylsulfonyl)piperidin-2-yl)methoxy)ethanone], the “B1R Antagonism, rat [10 μM] % Inhibition” value on B1R receptor of the rat is given as 62.33%. Also, at human B1R receptor, the “B1R Antagonism, human [10 μM] % Inhibition” value is reported as 95.42%.
For the molecule `CN1CCC(N2CCN(C(=O)COCC3CCCCN3S(=O)(=O)c3cccc4cccnc34)CC2)CC1` (centres unmarked) [Example 175, 1-(4-(1-methylpiperidin-4-yl)piperazin-1-yl)-2-((1-(quinolin-8-ylsulfonyl)piperidin-2-yl)methoxy)ethanone dihydrochloride], the values for the inhibition at 10 µM on B1R receptor of the rat and at human B1R receptor were 86.3% and 103%, respectively.
The corresponding values for `CN(C)CCCN1CCN(C(=O)COCC2CCCN2S(=O)(=O)c2c(Cl)cc(C(F)(F)F)cc2Cl)CC1` (centres unmarked) [Example 569, 2-((1-(2,6-dichloro-4-(trifluoromethyl)phenylsulfonyl)pyrrolidin-2-yl)methoxy)-1-(4-(3-(dimethylamino)propyl)piperazin-1-yl)ethanone] are 92.9% and 90%.
Regarding `Cc1cc(C)c(S(=O)(=O)N2CCCCC2COCC(=O)N2CCCC2CN2CCCCC2)c(C)c1` (centres unmarked) [Example 27, 1-(2-piperidin-1-ylmethyl-pyrrolidin-1-yl)-2-[1-(2,4,6-trimethyl-phenylsulfonyl)-piperidin-2-ylmethoxy]-ethanone], the inhibition at 10 µM at B1R receptor of the rat amounted to 97.7%; on human B1R receptor, 85.4%.
On to `COc1cc(C)c(S(=O)(=O)N2CCCCC2COCC(=O)Nc2ccc(Cn3ccnc3)cc2)c(C)c1` (centres unmarked) [Example 420, N-(4-((1H-imidazol-1-yl)methyl)phenyl)-2-((1-(4-methoxy-2,6-dimethylphenylsulfonyl)piperidin-2-yl)methoxy)acetamide], for which the inhibition at 10 µM was determined as 92% on B1R receptor of the rat and 100% at human B1R receptor.
The corresponding values for `O=C(COCC1CCCCN1S(=O)(=O)c1ccc(Cl)c(Cl)c1)N1CCOC(CN2CCCCC2)C1` (centres unmarked) [Example 266, 2-((1-(3,4-dichlorophenylsulfonyl)piperidin-2-yl)methoxy)-1-(2-(piperidin-1-ylmethyl)morpholino)ethanone] are 2.12% and 102%.
Turning to `COc1cc(C)c(S(=O)(=O)N2CCCCC2COCC(=O)N2CCC(c3cccnc3)C2)c(C)c1` (centres unmarked) [Example 237, 2-((1-(4-methoxy-2,6-dimethylphenylsulfonyl)piperidin-2-yl)methoxy)-1-(3-(pyridin-3-yl)pyrrolidin-1-yl)ethanone], the inhibition at 10 µM at B1R receptor of the rat was 99.5%; on human B1R receptor, 99.7%.
The corresponding values for `COc1cc(C)c(S(=O)(=O)N2CCCC2COCC(=O)N2CCCC2Cc2cccc(C)n2)c(C)c1` (centres unmarked) [Example 448, 2-((1-(4-methoxy-2,6-dimethylphenylsulfonyl)pyrrolidin-2-yl)methoxy)-1-(2-((6-methylpyridin-2-yl)methyl)pyrrolidin-1-yl)ethanone] are 99.8% and 85.8%.
